Experiment [1] relates to clinically relevant pathogens. The experiment is described as follows: In vitro antifungal activity, agar plate MIC determination. The class given is cell-based. The settings on record: Candida albicans. Here is the method:
The in vitro evaluation of the anti-fungal activity of compounds of the invention can be performed by determining the minimum inhibitory concentration (MIC) which is the concentration of the test compound in a suitable medium at which growth of a particular microorganism fails to occur.
[¹⁴C] Squalene was separated from unreacted substrate on thin layer chromatography plates and determined by liquid scintillation counting. Inhibition of squalene synthase was quantified by incubating rat liver homogenate with various concentrations of the test compound in the presence of [2-¹⁴C] farnesylpyrophosphate. The concentration of compound giving 50% inhibition of [¹⁴C] squalene production in a 30 minute assay was taken as the IC₅₀ value. […] In practice, a series of agar plates, each having the test compound incorporated at a particular concentration, was inoculated with a standard culture of a clinically relevant pathogen, for example Candida albicans, and each plate was then incubated at 37 °C for 24 to 48 hours depending on the pathogen.

Experiment [2] deals with T1, squalene synthase (Rattus norvegicus, UniProt Q02769).
T1 construct: from tissue; host or cells: rat liver homogenate
T1 sequence (Q02769 1-416): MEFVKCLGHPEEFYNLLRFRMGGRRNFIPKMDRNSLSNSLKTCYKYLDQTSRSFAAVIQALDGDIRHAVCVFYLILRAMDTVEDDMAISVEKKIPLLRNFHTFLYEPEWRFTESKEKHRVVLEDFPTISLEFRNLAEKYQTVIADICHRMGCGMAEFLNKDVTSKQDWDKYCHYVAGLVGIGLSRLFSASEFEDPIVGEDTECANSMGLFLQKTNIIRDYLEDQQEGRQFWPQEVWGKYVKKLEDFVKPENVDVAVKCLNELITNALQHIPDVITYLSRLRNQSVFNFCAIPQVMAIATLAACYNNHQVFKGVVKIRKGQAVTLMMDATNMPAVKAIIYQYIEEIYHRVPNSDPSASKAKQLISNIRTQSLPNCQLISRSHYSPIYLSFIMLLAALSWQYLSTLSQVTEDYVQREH
The experiment is described as follows: Inhibition of squalene synthase ([14C]squalene production from [2-14C]farnesylpyrophosphate). It is filed as biochemical. The text has this: A. Biller et al. in J. […] [¹⁴C]squalene is separated from unreacted substrate on thin layer chromatography plates and determined by liquid scintillation counting. […] Acta, Volume 877, 50-60 (1986) and modified to include measurement of cholesterol by high performance liquid chromatography (h.p.l.c.). […] A. […] [¹⁴C] Squalene was separated from unreacted substrate on thin layer chromatography plates and determined by liquid scintillation counting. Inhibition of squalene synthase was quantified by incubating rat liver homogenate with various concentrations of the test compound in the presence of [2-¹⁴C] farnesylpyrophosphate. The concentration of compound giving 50% inhibition of [¹⁴C] squalene production in a 30 minute assay was taken as the IC₅₀ value.

≈ marks a conversion by molar mass, not a printed value. Like-named read-outs stand apart in the source and are kept apart here.

Usually MIC stands for the smallest concentration in the dilution series that meets the test's criterion for growth inhibition. Read a high MIC as a need for much substance. The compound `CC[C@H](C)C[C@H](C)CCC(=O)O[C@@H]1[C@@H](O)[C@@]2(CCC(C)[C@@H](O)[C@H](C)Cc3ccccc3)O[C@H](C(=O)O)[C@@](O)(C(=O)O)[C@]1(C(=O)O)O2` (relative stereo) [Example 13, [1S-[1α(3R*S*,4S*,5S*),3α,4β,5α,6α(4S*,6R*),7β]] 1-(3,5-Dimethyl-4-hydroxy-6-phenylhexyl)-4,6,7-trihydroxy-2,8-dioxabicyclo[3.2.1]octane-3,4,5-tricarboxylic acid, 6-(4,6-dimethyloctanoate)] returned an MIC in experiment [1] of 0.1 to 31 µg/mL (≈ 0.153 to 47.5 µM).
Compound `C=C(CC[C@]12O[C@H](C(=O)O)[C@@](O)(C(=O)O)[C@](C(=O)O)(O1)[C@H](OC(=O)CC=CCCCC)[C@H]2O)[C@@H](OC(C)=O)[C@H](C)Cc1ccccc1` (relative stereo) [Example 64, [1S-[1α(4R*,5S*),3α,4β,5α,6α,7β]] 1-(4-Acetyloxy-5-methyl-3-methylene-6-phenylhexyl)-4,6,7-trihydroxy-2,8-dioxabicyclo[3.2.1]octane-3,4,5-tricarboxylic acid, 6-[(E/Z)-3-octenoate]] showed an IC50 in experiment [2] of less than 100 nM. This compound showed an MIC in experiment [1] of 0.1 to 31 µg/mL (≈ 0.151 to 46.8 µM).
The matching figures for `C=C(CC[C@]12O[C@H](C(=O)O)[C@@](O)(C(=O)O)[C@](C(=O)O)(O1)[C@H](OC(=O)OCCCCCCCCC)[C@H]2O)[C@@H](OC(C)=O)[C@H](C)Cc1ccccc1` (relative stereo) [Example 57, [1S-[1α(4R*,5S*),3α,4β.5α,6α,7β]] 1-(4-Acetyloxy-5-methyl-3-methylene-6-phenylhexyl)-4,7-dihydroxy-6-[(nonoxycarbonyl)oxy]-2,8-dioxabicyclo[3.2.1]octane-3,4,5-tricarboxylic acid]: less than 100 nM and 0.1 to 31 µg/mL (≈ 0.141 to 43.7 µM).
Take `C=C(CC[C@]12O[C@H](C(=O)O)[C@@](O)(C(=O)O)[C@](C(=O)O)(O1)[C@H](OC(=O)CCCC1CCCCC1)[C@H]2O)[C@@H](OC(C)=O)[C@H](C)Cc1ccccc1` (relative stereo) [Example 41, [1S-[1α(4R*,5S*),3α,4β,5α,6α,7β]] 1-(4-Acetyloxy-5-methyl-3-methylene-6-phenylhexyl)-4,6,7-trihydroxy-2,8-dioxabicyclo[3.2.1]octane-3,4,5-tricarboxylic acid, 6-(4-cyclohexylbutanoate)]: the IC50 in experiment [2] is less than 100 nM. In experiment [1], the MIC was 0.1 to 31 µg/mL (≈ 0.145 to 44.9 µM).
The like results for `CC[C@H](C)C[C@H](C)CCC(=O)O[C@@H]1[C@@H](O)[C@@]2(C/C=C(\C)[C@@H](OC(C)=O)[C@H](C)Cc3ccccc3)O[C@H](C(=O)O)[C@@](O)(C(=O)O)[C@]1(C(=O)O)O2` (relative stereo) [Example 11, [1S-[1α[(E),4R*,5S*],3α,4β,5α,6α(4S*,6R*),7β]] 1-(4-Acetyloxy-3,5-dimethyl-6-phenyl-2-hexenyl)-4,6,7-trihydroxy-2,8-dioxabicyclo[3.2.1]octane-3,4,5-tricarboxylic acid, 6-(4,6-dimethyloctanoate)] were, in that order, less than 100 nM and 0.1 to 31 µg/mL (≈ 0.144 to 44.7 µM).
In experiment [2], `C=C(CC[C@]12O[C@H](C(=O)O)[C@@](O)(C(=O)O)[C@](C(=O)O)(O1)[C@H](OC(=O)CCCCCCCCC)[C@H]2O)[C@@H](OC(C)=O)[C@H](C)Cc1ccccc1` (relative stereo) [6-decanoate in Example 30, [1S-[1α(4R*,5S*),3α,4β,5α,6α,7β]] 1-(4-acetyloxy-5-methyl-3-methylene-6-phenylhexyl)-4,6,7-trihydroxy-2,8-dioxabicyclo[3.2.1]octane-3,4,5-tricarboxylic acid, 6-decanoate] gave an IC50 of less than 100 nM. In addition, in experiment [1], the MIC was in the range of 0.1 to 31 µg/mL (≈ 0.144 to 44.7 µM).
Take `C=C(CC[C@]12O[C@H](C(=O)O)[C@@](O)(C(=O)O)[C@](C(=O)O)(O1)[C@H](OC(=O)/C=C/[C@@H](C)C[C@@H](C)CC)[C@H]2O)[C@H](O)[C@H](C)Cc1ccccc1` (relative stereo) [Example 1, [1S-[1α(4S*,5S*),3α,4β,5α,6α(2E,4R*,6R*),7β]] 1-(4-Hydroxy-5-methyl-3-methylene-6-phenylhexyl)-4,6,7-trihydroxy-2,8-dioxabicyclo[3.2.1]octane-3,4,5-tricarboxylic acid, 6-(4,6-dimethyl-2-octenoate)]: in experiment [2], the IC50 was less than 100 nM. Moreover, the minimal inhibitory concentration (MIC) in experiment [1] fell in the range of 0.1 to 31 µg/mL (≈ 0.154 to 47.8 µM).
`C=C(CC[C@]12O[C@H](C(=O)O)[C@@](O)(C(=O)O)[C@](C(=O)O)(O1)[C@H](OC(=O)CCCCCCC)[C@H]2O)[C@@H](OC(C)=O)[C@H](C)Cc1ccccc1` (relative stereo) [Example 31, [1S-[1α(4R*,5S*),3α,4β,5α,6α,7β]] 1-(4-Acetyloxy-5-methyl-3-methylene-6-phenylhexyl)-4,6,7-trihydroxy-2,8-dioxabicyclo[3.2.1]octane-3,4,5-tricarboxylic acid, 6-octanoate] registered an IC50 in experiment [2] of less than 100 nM. The MIC in experiment [1] fell in the range of 0.1 to 31 µg/mL (≈ 0.15 to 46.6 µM).
In experiment [2], `C=C(CC[C@]12O[C@H](C(=O)O)[C@@](O)(C(=O)O)[C@](C(=O)O)(O1)[C@H](OC(=O)/C=C/[C@@H](C)C[C@@H](C)CC)[C@H]2O)C(=O)[C@H](C)Cc1ccccc1` [Example 3, [1S-[1α(5S^*),3α,4β,5α,6α(2E,4R^*,6R^*),7β]] 1-(5-Methyl-3-methylene-4-oxo-6-phenylhexyl)-4,6,7-trihydroxy-2,8-dioxabicyclo[3.2.1]octane-3,4,5-tricarboxylic acid, 6-(4,6-dimethyl-2-octenoate)] displayed an IC50 of less than 100 nM.
Still for that read-out and setting: the value for `CCC(C)CC(C)CCC(=O)OC1C(O)C2(CCC(=O)C(O)C(C)Cc3ccccc3)OC(C(=O)O)C(O)(C(=O)O)C1(C(=O)O)O2` (stereo not drawn) [Example 17, [1S-[1α(4R*,5S*),3α,4β,5α,6α(4S*,6R*),7β]] 1-(4-Hydroxy-5-methyl-3-oxo-6-phenylhexyl)-4,6,7-trihydroxy-2,8-dioxobicyclo[3.2.1]octane-3,4,5-tricarboxylic acid, 6-(4,6-dimethyloctanoate)] was less than 100 nM; that for `C=C(CC[C@]12O[C@H](C(=O)O)[C@@](O)(C(=O)O)[C@](C(=O)O)(O1)[C@H](OC(=O)C1CCCCC1)[C@H]2O)[C@@H](OC(C)=O)[C@H](C)Cc1ccccc1` (relative stereo) [Example 43, [1S-[1α(4R*,5S*),3α,4β,5α,6α,7β]] 1-(4-Acetyloxy-5-methyl-3-methylene-6-phenylhexyl)-4,6,7-trihydroxy-2,8-dioxabicyclo[3.2.1]octane-3,4,5-tricarboxylic acid, 6-(cyclohexanecarboxylate)] was less than 100 nM.
For `CCC(C)CC(C)/C=C/C(=O)OC1C(O)C2(CCC(C)C(=O)C(C)Cc3ccccc3)OC(C(=O)O)C(O)(C(=O)O)C1(C(=O)O)O2` (single isomer, unassigned) [Example 6, [1S-[1α[3R*(S*),5S*],3α,4β,5α,6α(2E,4R*,6R*),7β]] 1-(3,5-Dimethyl-4-oxo-6-phenylhexyl)-4,6,7-trihydroxy-2,8-dioxabicyclo[3.2.1]octane-3,4,5-tricarboxylic acid, 6-(4,6-dimethyl-2-octenoate), isomer 1 and isomer 2], the IC50 in experiment [2] (rat liver homogenate, [2-¹⁴C] farnesylpyrophosphate as substrate, 50% inhibition of [¹⁴C] squalene production in a 30 minute assay, read-out: IC₅₀) is less than 100 nM.
With `CCC(C)CC(C)CCC(=O)OC1C(O)C2(CCCC(=O)CCc3ccccc3)OC(C(=O)O)C(O)(C(=O)O)C1(C(=O)O)O2` (stereo not drawn) [Example 19, [1S-[1α,3α,4β,5α,6α(4S*,6R*),7β]] 1-(4-Oxo-6-phenylhexyl)-4,6,7-trihydroxy-2,8-dioxabicyclo[3.2.1]octane-3,4,5-tricarboxylic acid, 6-(4,6-dimethyloctanoate)], in experiment [2], the IC50 is less than 100 nM.
On the same count and under the same terms, the value for `CCC(CC[C@]12O[C@H](C(=O)O)[C@@](O)(C(=O)O)[C@](C(=O)O)(O1)[C@H](OC(=O)/C=C/[C@@H](C)C[C@@H](C)CC)[C@H]2O)C(=O)[C@H](C)Cc1ccccc1` (relative stereo) [Example 10, [1S-[1α(3R*S*,5S*),3α,4β,5α,6α(2E,4R*,6R*),7β]] 1-(3-Ethyl-5-methyl-4-oxo-6-phenylhexyl)-4,6,7-trihydroxy-2,8-dioxabicyclo[3.2.1]octane-3,4,5-tricarboxylic acid, 6-(4,6-dimethyl-2-octenoate)] was less than 100 nM; that for `CC[C@H](C)C[C@H](C)/C=C/C(=O)O[C@@H]1[C@@H](O)[C@@]2(C/C=C(\C)C(=O)[C@H](C)Cc3ccccc3)O[C@H](C(=O)O)[C@@](O)(C(=O)O)[C@]1(C(=O)O)O2` (relative stereo) [Example 2, [1S-[1α[(E),5S*],3α,4β,5α,6α(2E,4R*,6R*),7β]] 1-(3,5-Dimethyl-4-oxo-6-phenyl-2-hexenyl)-4,6,7-trihydroxy-2,8-dioxabicyclo[3.2.1]octane-3,4,5-tricarboxylic acid, 6-(4,6-dimethyl-2-octenoate)] was less than 100 nM.
